# ChEMBL document CHEMBL3044572, “Discovery of 2-(4-cyano-3-trifluoromethylphenyl amino)-4-(4-quinazolinyloxy)-6-piperazinyl(piperidinyl)-s-triazines as potential antibacterial agents” (2012)
# Calls of active or inactive are those of the source. The calls are words filed in the database; no cut-off is given here.
# Key:
# Candida albicans [1] = assay: Antimicrobial activity against Candida albicans MTCC 183 by agar streak dilution method; format: functional
# Aspergillus clavatus [2] = assay: Antimicrobial activity against Aspergillus clavatus MTCC 1323 by paper disk diffusion method; format: functional
# Aspergillus niger [3] = assay: Antimicrobial activity against Aspergillus niger MTCC 282 by paper-disk diffusion method; format: functional
# Aspergillus fumigatus [4] = assay: Antimicrobial activity against Aspergillus fumigatus MTCC 343 by paper-disk diffusion method; format: functional
# Pseudomonas aeruginosa [5] = assay: Antimicrobial activity against Pseudomonas aeruginosa MTCC 741 at 100 ug/ml by paper disk diffusion method; format: functional, organism-based
# Shigella flexneri [6] = assay: Antimicrobial activity against Shigella flexneri MTCC 1457 by paper disk diffusion method; format: functional
# Proteus vulgaris [7] = assay: Antimicrobial activity against Proteus vulgaris MTCC 1771 by paper disk diffusion method; format: functional
# Salmonella typhi [8] = assay: Antimicrobial activity against Salmonella enterica subsp. enterica serovar Typhi MTCC 733 by paper disk diffusion method; format: functional
# Klebsiella pneumoniae [9] = assay: Antimicrobial activity against Klebsiella pneumoniae MTCC 109 by paper disk diffusion method; format: functional
# Pseudomonas aeruginosa [10] = assay: Antimicrobial activity against Pseudomonas aeruginosa MTCC 741 by paper disk diffusion method; format: functional
# Bacillus cereus [11] = assay: Antimicrobial activity against Bacillus cereus MTCC 619 by paper disk diffusion method; format: functional
# Escherichia coli [12] = assay: Antimicrobial activity against Escherichia coli MTCC 739 by paper disk diffusion method; format: functional
# Staphylococcus aureus [13] = assay: Antimicrobial activity against Staphylococcus aureus MTCC 96 by paper-disk diffusion method; format: functional
# Aspergillus clavatus [14] = assay: Antimicrobial activity against Aspergillus clavatus MTCC 1323 by agar streak dilution method; format: functional
# Aspergillus fumigatus [15] = assay: Antimicrobial activity against Aspergillus fumigatus MTCC 343 by agar streak dilution method; format: functional
# Aspergillus niger [16] = assay: Antimicrobial activity against Aspergillus niger MTCC 282 by agar streak dilution method; format: functional
# Proteus vulgaris [17] = assay: Antimicrobial activity against Proteus vulgaris MTCC 1771 by agar streak dilution method; format: functional
# Shigella flexneri [18] = assay: Antimicrobial activity against Shigella flexneri MTCC 1457 by agar streak dilution method; format: functional
# Klebsiella pneumoniae [19] = assay: Antimicrobial activity against Klebsiella pneumoniae MTCC 109 by agar streak dilution method; format: functional
# Salmonella typhi [20] = assay: Antimicrobial activity against Salmonella enterica subsp. enterica serovar Typhi MTCC 733 by agar streak dilution method; format: functional
# Pseudomonas aeruginosa [21] = assay: Antimicrobial activity against Pseudomonas aeruginosa MTCC 741 by agar streak dilution method; format: functional
# Staphylococcus aureus [22] = assay: Antimicrobial activity against Staphylococcus aureus MTCC 96 by agar streak dilution method; format: functional
# Bacillus cereus [23] = assay: Antimicrobial activity against Bacillus cereus MTCC 619 by agar streak dilution method; format: functional
# [24] = system: Mycobacterium tuberculosis; assay: Antimicrobial activity against Mycobacterium tuberculosis H37Rv at 100 ug/ml by BACTEC MGIT method; format: functional, organism-based
# Escherichia coli [25] = assay: Antimicrobial activity against Escherichia coli MTCC 739 by agar streak dilution method; format: functional
# [26] = system: Mycobacterium tuberculosis; assay: Antimicrobial activity against Mycobacterium tuberculosis H37Rv by Lowenstein and Jensen method; format: functional; settings: for MIC: Mycobacterium tuberculosis, H37Rv
# [27] = system: Mycobacterium tuberculosis; assay: Antimicrobial activity against Mycobacterium tuberculosis H37Rv by BACTEC MGIT method; format: functional; settings: Mycobacterium tuberculosis, H37Rv
# Candida albicans [28] = assay: Antimicrobial activity against Candida albicans MTCC 183 by paper-disk diffusion method; format: functional
Compound,MIC (Candida albicans [1]) [µg/mL],inhibition zone (IZ) (Aspergillus clavatus [2]) [mm],inhibition zone (IZ) (Aspergillus niger [3]) [mm],inhibition zone (IZ) (Aspergillus fumigatus [4]) [mm],inhibition zone (IZ) (Pseudomonas aeruginosa [5]),inhibition zone (IZ) (Shigella flexneri [6]) [mm],inhibition zone (IZ) (Proteus vulgaris [7]) [mm],inhibition zone (IZ) (Salmonella typhi [8]) [mm],inhibition zone (IZ) (Klebsiella pneumoniae [9]) [mm],inhibition zone (IZ) (Pseudomonas aeruginosa [10]) [mm],inhibition zone (IZ) (Bacillus cereus [11]) [mm],inhibition zone (IZ) (Escherichia coli [12]) [mm],inhibition zone (IZ) (Staphylococcus aureus [13]) [mm],MIC (Aspergillus clavatus [14]) [µg/mL],MIC (Aspergillus fumigatus [15]) [µg/mL],MIC (Aspergillus niger [16]) [µg/mL],MIC (Proteus vulgaris [17]) [µg/mL],MIC (Shigella flexneri [18]) [µg/mL],MIC (Klebsiella pneumoniae [19]) [µg/mL],MIC (Salmonella typhi [20]) [µg/mL],further results
N#Cc1ccc(Nc2nc(Oc3ncnc4ccccc34)nc(N3CCN(c4ccc(F)cc4)CC3)n2)cc1C(F)(F)F,6.25,24,25,24,inactive,23,24,27,23,28,26,25,28,12.5,12.5,12.5,12.5,50,25,6.25,MIC (Pseudomonas aeruginosa [21]): 6.25 µg/mL; MIC (Staphylococcus aureus [22]): 6.25 µg/mL; MIC (Bacillus cereus [23]): 12.5 µg/mL; inhibition [24]: inactive; MIC (Escherichia coli [25]): 25 µg/mL; inhibition (percent inhibition) [26]: 98%; MIC [26]: 12.5 µg/mL; MIC [27]: > 6.25 µg/mL; inhibition zone (IZ) (Candida albicans [28]): 27 mm
N#Cc1ccc(Nc2nc(Oc3ncnc4ccccc34)nc(N3CCN(c4ccccc4Cl)CC3)n2)cc1C(F)(F)F,12.5,22,22,24,inactive,27,24,26,23,24,24,22,26,50,12.5,50,25,12.5,100,6.25,MIC (Pseudomonas aeruginosa [21]): 25 µg/mL; MIC (Staphylococcus aureus [22]): 12.5 µg/mL; MIC (Bacillus cereus [23]): 50 µg/mL; inhibition [24]: inactive; MIC (Escherichia coli [25]): 100 µg/mL; inhibition (percent inhibition) [26]: 97%; MIC [26]: 25 µg/mL; MIC [27]: > 6.25 µg/mL; inhibition zone (IZ) (Candida albicans [28]): 25 mm
